The record followed here is patent US20210177722A1, “Phytic Acid Ester Derivative” (NATIONAL UNIVERSITY CORPORATION KUMAMOTO UNIVERSITY, priority 2018, published 2021).

One series deals with HeLa cell. Nature of the series: Quantitative determination of IP6 in cell (LC/MS of IP6 methyl ester). Type of series: cell-based. The conditions noted are these: HeLa cells, 10 μM, 30 minutes. As to the method: In this example, incorporation of Pro-IP6 into a HeLa cell was quantitatively determined.
HeLa cells (5×10^5 cells/well, culture fluid: 1 mL) were seeded in a 3.5 cm dish to be cultured for 24 hours. Thereafter, DMSO (1%, Fujifilm Wako Pure Chemical Corporation), an aqueous solution (1%) of IP6 (final concentration: 10 μM, Sigma Aldrich), or a DMSO solution (1%) of Pro-IP6 (final concentration: 10 μM) synthesized in Example 1 was added thereto, and the resultant was cultured for another 30 minutes. HeLa cells were cultured with neither IP6 nor Pro-IP6 added, followed by adding the same amount of DMSO thereto, and the resultant was used as a negative control.
Thereafter, the resultant was washed with 1× PBS (−) once, and the resultant cells were scraped with a cell scraper, transferred to a 1.5 mL tube, and washed with 1× PBS (−) three times. To the thus obtained precipitate, 350 μl of MeOH (Fujifilm Wako Pure Chemical Corporation) and 1% NP-40 (Nacalai Tesque, Inc.) were added, followed by sonication (10 minutes). After equilibrating a column (Oasis WAX 1cc, Waters) with MeOH (1 mL) and H2O (1 mL), a disrupted cell extract was added thereto. Thereafter, the column was washed with 50% MeOH (1 mL), and eluted with 50% MeOH (200 μL×2) containing 2 mol/L of HCl (Fujifilm Wako Pure Chemical Corporation). The thus obtained eluate was concentrated, and dissolved in MeOH (50 μL), and trimethylsilyldiazomethane (200 μl, Tokyo Chemical Industry Co., Ltd.) was added thereto, followed by stirring at 50° C. for 1 hour under argon atmosphere. The reaction was stopped by adding H2O (100 μL). Through a reaction of trimethylsilyidiazomethane with IP6, IP6 methyl ester is obtained.
The thus obtained sample (IP6 methyl ester) was measured by LC/MS [column: MastroC18 2.1 mm×100 mm, […] (Shimadzu GLC Ltd.), mobile phase: 0.1% formic acid solution (Fujifilm Wako Pure Chemical Corporation), acetonitrile (Fujifilm Wako Pure Chemical Corporation)] [LC:LC-20AD (Shimadzu), MS: amaZon speed (BRUKER)].

Series [1] concerns MT-2 cell (HTLV transformed human T cell leukemia cell). The series is described as follows: MTT assay, MT-2 cell. Type of series: cell-based. The conditions noted are these: 1 μM or 10 μM, 8 hours or 24 hours. As to the method:
(§1) In this example, the cytotoxic effect of Pro-IP6 on four types of blood cancer cell lines and a cell derived from a healthy person was examined by MTT assay. […] It is possible to check viability of cultured cells by MTT assay. Cancer cell lines (1.74×10^4 cells/well, culture fluid: 200 μL) • MT-2 cell (HTLV transformed human T cell leukemia cell) • […] cell (human T-lymphoblastoid cell) • Jurkat cell (human T-lymphocyte cell) • K562 cell (chronic myelogenous leukemia cell) Each of the above-described types of cells was seeded in a 96-well plate, and was cultured for 8 hours for each of the various cancer cell lines and for 16 hours for PMBC. Thereafter, DMSO (1%, Fujifilm Wako Pure Chemical Corporation), an aqueous solution (1%) of IP6 (final concentration: 1 μM or 10 μM, Sigma Aldrich), or a DMSO solution (1%) of Pro-IP6 (final concentration: 1 μM or 10 μM) was added thereto, followed by culturing for 8 hours or 24 hours. An MTT reagent (Dojindo Laboratories, 1.1 mg/mL) was added in an amount of 50 μL per well, and the resultant was cultured for another 4 hours. The thus precipitated crystal was collected, a supernatant was removed, and 100 μL of DMSO was added thereto to completely dissolve. The resultant solution was measured for an absorbance (550 nm).
In general terms: Formazan colour is commonly taken as a measure of viable cells.

Series [2] deals with M8166 cell (human T-lymphoblastoid cell). The series is described as follows: MTT assay, M8166 cell. The conditions noted are these: M8166 cell, 1 μM or 10 μM, 8 hours or 24 hours. The class given is cell-based. As for the experimental part:
as §1

Series [3] concerns Jurkat cell (human T-lymphocyte cell). The series is described as follows: MTT assay, Jurkat cell. The class given is cell-based. The conditions noted are these: Jurkat cell, 1 μM or 10 μM, 8 hours or 24 hours. As to the method: as §1
For series [4], the system named is K562 cell (chronic myelogenous leukemia cell). Nature of the series: MTT assay, K562 cell. The class given is cell-based. The conditions noted are these: 1 μM or 10 μM, 8 hours or 24 hours. As to the method:
as §1

Series [5] deals with S1T cell (ATL cell line) tumor. Nature of the series: Effect on HTLV-1 infected cell-transplanted mouse (ATL model). The class given is in vivo. Conditions: day 28 after transplantation, 7.1 mg/kg per day intraperitoneally for 28 days, NSG mice with S1T cells. An excerpt:
In this example, the in vivo effect of Pro-IP6 on an HTLV-1 infected cell-transplanted mouse was checked. HTLV-1 (human T cell leukemia virus 1) mainly infects CD4-positive T lymphocyte, and when the infected cell cancerates, refractory malignant tumor, adult T-cell leukemia (ATL) is caused. In this example, S1T cell, that is, one of ATL cell lines, was used.
5-Week-old female NSG mice (NOD. Cg-Prkdc scid I12rg tm1Wjl/SzJ, Charles River Laboratories Japan, Inc.) were used. Five mice each in each of two cages, namely, ten mice in total, were raised with sterilized bedding (Pepar Clean: Japan SLC, Inc.) placed in a sterilized cage (Clea Japan, Inc.). […]
The control group was dosed with DMSO, and the IP6 administration group and the pro-IP6 administration group were intraperitoneally dosed respectively with IP6 in an amount of 7.1 mg/kg and pro-IP6 in an amount of 20 mg/kg. The mice were dosed continuously for 28 days after the day of the cell transplantation, and the weight and the tumor volume of each mouse were measured every day. The tumor volume was defined as (shorter diameter in mm)^2×(longer diameter in mm)×0.5, and the shorter diameter and the longer diameter were measured with a caliper. […] Subsequently, the tumor was totally removed, and the tumor volume and the tumor weight of each tumor were measured.

Take `O=P(O)(O)O[C@H]1[C@H](OP(=O)(O)O)[C@@H](OP(=O)(O)O)[C@H](OP(=O)(O)O)[C@@H](OP(=O)(O)O)[C@H]1OP(=O)(O)O` [IP6, myo-inostiol-1,2,3,4,5,6-hexaphosphate, reference compound]: the “incorporation into HeLa cell (IP6 methyl ester by LC/MS vs negative control)” value in the series with HeLa cell is reported as “substantially the same as that of the negative control”. In addition, the cytotoxic effect result in series [1], in series [2], in series [3] and in series [4] was “minimally exhibited the effect” each time. Further, the “tumor volume compared with that of the control group” value in series [5] is listed as “not significantly different”.
